Holding throughout (assay type): in vivo
Holding throughout (conditions): 125 g/h, evaluated after 13 days

Test [1] concerns Abutilon theophrasti (ABUTH). Kind of test: Post-emergence glasshouse herbicide test. On the procedure: (§1) Seeds of a variety of test species are sown in standard soil in pots (Lolium perenne (LOLPE), Amaranthus retoflexus (AMARE), Abutilon theophrasti (ABUTH), Setaria faberi (SETFA), Echinochloa crus-galli (ECHCG), Ipomoea hederacea (IPOHE)). After cultivation for one day (pre-emergence) or after 8 days cultivation (post-emergence) under controlled conditions in a glasshouse (at 24/16° C., day/night; 14 hours light; 65% humidity), the plants are sprayed with an aqueous spray solution derived from the formulation of the technical active ingredient in acetone/water (50:50) solution containing 0.5% Tween™ 20 (polyoxyethelyene sorbitan monolaurate, CAS RN 9005-64-5). Compounds are applied at 125 g/h unless otherwise indicated. The test plants are then grown in a glasshouse under controlled conditions in a glasshouse (at 24/16° C., day/night; 14 hours light; 65% humidity) and watered twice daily. After 13 days for pre- and post-emergence, the test is evaluated for the percentage damage caused to the plant. The biological activities are shown in the following table on a five-point scale (5=80-100%; 4=60-79%; 3=40-59%; 2=20-39%; 1=0-19%).

In test [2] the test system is Echinochloa crus-galli (ECHCG). The test is described as follows: Post-emergence glasshouse herbicide test. The protocol:
as §1

Test [3] deals with Amaranthus retoflexus (AMARE). Kind of test: Post-emergence glasshouse herbicide test. The protocol: as §1
In test [4] the test system is Setaria faberi (SETFA). The test is described as follows: Post-emergence glasshouse herbicide test. On the procedure:
as §1

In test [5] the test system is Ipomoea hederacea (IPOHE). The test is described as follows: Post-emergence glasshouse herbicide test. The protocol: as §1
Test [6] concerns Abutilon theophrasti (ABUTH). The test is described as follows: Pre-emergence glasshouse herbicide test. On the procedure:
as §1

Test [7] has as its system Echinochloa crus-galli (ECHCG). Kind of test: Pre-emergence glasshouse herbicide test. On the procedure: as §1
The test system of test [8] is Amaranthus retoflexus (AMARE). Kind of test: Pre-emergence glasshouse herbicide test. On the procedure:
as §1

The subject of test [9] is Setaria faberi (SETFA). Kind of test: Pre-emergence glasshouse herbicide test. The protocol: as §1
The subject of test [10] is Ipomoea hederacea (IPOHE). The test is described as follows: Pre-emergence glasshouse herbicide test. On the procedure: as §1

Consider `CC[S+]([O-])c1c(OC(F)F)ccc(C(=O)Nc2nnnn2C)c1Cl` (centres unmarked) [Compound 1.026], for which the “percentage damage caused to the plant, ABUTH” value in test [1] and in test [6] was 5 (5=80-100%) each time. In addition, the “percentage damage caused to the plant, ECHCG” value in test [2] and in [7] was 5 (5=80-100%) each time. In addition, the “percentage damage caused to the plant, AMARE” value in test [3] and in test [8] was 5 (5=80-100%) throughout. The “percentage damage caused to the plant, SETFA” value in test [4] and in [9] was 5 (5=80-100%) each time. Moreover, the “percentage damage caused to the plant, IPOHE” value in [5] and in test [10] was 5 (5=80-100%) each time.

On to `CCn1nnnc1NC(=O)c1ccc(OC(F)(F)F)c(S(=O)(=O)CC)c1Cl` [Compound 1.047], for which the “percentage damage caused to the plant, ABUTH” value in test [1] and in [6] was 5 (5=80-100%) in each case. The “percentage damage caused to the plant, ECHCG” value in [2] and in test [7] was 5 (5=80-100%) throughout. Moreover, the “percentage damage caused to the plant, AMARE” value in test [3] and in [8] was 5 (5=80-100%) in each case. Further, the “percentage damage caused to the plant, SETFA” value in test [4] and in test [9] was 5 (5=80-100%) each time. The “percentage damage caused to the plant, IPOHE” value in test [5] and in test [10] was 5 (5=80-100%) in each case.

Turning to `CC(C)S(=O)(=O)c1c(OC(F)F)ccc(C(=O)Nc2nnnn2C)c1Cl` [Compound 1.054], the “percentage damage caused to the plant, ABUTH” value in [1] was 4 (4=60-79%); in [6], 5 (5=80-100%). In addition, the “percentage damage caused to the plant, ECHCG” value is 4 (4=60-79%) in test [2] and 5 (5=80-100%) in test [7]. Besides, the “percentage damage caused to the plant, AMARE” value is recorded as 4 (4=60-79%) in [3] and 5 (5=80-100%) in [8]. For the same molecule, the “percentage damage caused to the plant, SETFA” value is 4 (4=60-79%) in [4] and 5 (5=80-100%) in [9]. The “percentage damage caused to the plant, IPOHE” value in [5] and in test [10] was 4 (4=60-79%) each time.

On to `CCS(=O)(=O)c1cc(C(=O)Nc2nnc(C)o2)ccc1OC(F)(F)F` [Compound 2.009], for which the “percentage damage caused to the plant, ABUTH” value is 4 (4=60-79%) in [1] and 5 (5=80-100%) in [6]. The “percentage damage caused to the plant, ECHCG” value in [2] and in [7] was 5 (5=80-100%) in each case. Moreover, the “percentage damage caused to the plant, AMARE” value in [3] and in test [8] was 5 (5=80-100%) each time. In addition, the “percentage damage caused to the plant, SETFA” value in [4] and in test [9] was 5 (5=80-100%) throughout. In addition, the “percentage damage caused to the plant, IPOHE” value in test [5] was 4 (4=60-79%); in test [10] it was 2 (2=20-39%).

For the molecule `CCCSc1c(OC(F)F)ccc(C(=O)Nc2nnnn2C)c1Cl` [Compound 1.066], the “percentage damage caused to the plant, ABUTH” value in [1] and in test [6] was 5 (5=80-100%) in each case. The “percentage damage caused to the plant, ECHCG” value is 4 (4=60-79%) in test [2] and 5 (5=80-100%) in test [7]. Moreover, the “percentage damage caused to the plant, AMARE” value in test [3] and in test [8] was 5 (5=80-100%) throughout. Further, the results for the “percentage damage caused to the plant, SETFA” value in test [4] and in test [9] were 4 (4=60-79%) and 5 (5=80-100%), respectively. Moreover, the “percentage damage caused to the plant, IPOHE” value in test [5] is 5 (5=80-100%); in test [10] it was 3 (3=40-59%).

Turning to `CCn1nnnc1NC(=O)c1ccc(OC(F)F)c(S(=O)(=O)CC)c1C` [Compound 1.048], the “percentage damage caused to the plant, ABUTH” value in test [1] and in [6] was 5 (5=80-100%) throughout. Besides, the “percentage damage caused to the plant, ECHCG” value in test [2] and in [7] was 5 (5=80-100%) each time. Further, the “percentage damage caused to the plant, AMARE” value in test [3] and in test [8] was 5 (5=80-100%) in each case. Moreover, the “percentage damage caused to the plant, SETFA” value in test [4] and in [9] was 5 (5=80-100%) each time. In addition, the “percentage damage caused to the plant, IPOHE” value in test [5] and in test [10] was 5 (5=80-100%) throughout.

On to `CCS(=O)(=O)c1c(OCC(F)(F)F)ccc(C(=O)Nc2nnc(C)o2)c1C` [Compound 2.018], for which the “percentage damage caused to the plant, ABUTH” value in [1] and in [6] was 5 (5=80-100%) throughout. The “percentage damage caused to the plant, ECHCG” value in test [2] and in test [7] was 5 (5=80-100%) in each case. Moreover, the “percentage damage caused to the plant, AMARE” value in test [3] and in [8] was 5 (5=80-100%) each time. Further, the “percentage damage caused to the plant, SETFA” value in test [4] and in [9] was 5 (5=80-100%) throughout. The “percentage damage caused to the plant, IPOHE” value was 5 (5=80-100%) in test [5] and 4 (4=60-79%) in test [10].

On to `CSc1c(OC(F)(F)C(F)F)ccc(C(=O)Nc2nnnn2C)c1Cl` [Compound 1.009, 2-chloro-3-methylsulfanyl-N-(1-methyltetrazol-5-yl)-4-(1,1,2,2-tetrafluoroethoxy)benzamide], for which the “percentage damage caused to the plant, ABUTH” value in [1] and in test [6] was 4 (4=60-79%) in each case. Moreover, the “percentage damage caused to the plant, ECHCG” value in test [2] is reported as 4 (4=60-79%); in test [7], 5 (5=80-100%). Besides, the “percentage damage caused to the plant, AMARE” value in test [3] is 4 (4=60-79%); in [8], 5 (5=80-100%). Moreover, the “percentage damage caused to the plant, SETFA” value in test [4] is 4 (4=60-79%); in [9] it was 5 (5=80-100%). In addition, the “percentage damage caused to the plant, IPOHE” value in [5] was 4 (4=60-79%); in [10] it was 3 (3=40-59%).

On to `CCn1nnnc1NC(=O)c1ccc(OC(F)F)c(S(=O)(=O)CC)c1Cl` [Compound 1.049], for which the “percentage damage caused to the plant, ABUTH” value in test [1] and in test [6] was 5 (5=80-100%) throughout. Moreover, the “percentage damage caused to the plant, ECHCG” value in [2] and in [7] was 5 (5=80-100%) in each case. The “percentage damage caused to the plant, AMARE” value in [3] and in test [8] was 5 (5=80-100%) in each case. In addition, the “percentage damage caused to the plant, SETFA” value in test [4] and in test [9] was 5 (5=80-100%) each time. The “percentage damage caused to the plant, IPOHE” value in [5] is 4 (4=60-79%); in test [10] it was 5 (5=80-100%).

For `CCS(=O)(=O)c1c(OC(F)F)ccc(C(=O)Nc2nnc(C)o2)c1Cl` [Compound 2.013], the “percentage damage caused to the plant, ABUTH” value in test [1] and in [6] was 5 (5=80-100%) throughout. Further, the “percentage damage caused to the plant, ECHCG” value in test [2] and in [7] was 5 (5=80-100%) throughout. The “percentage damage caused to the plant, AMARE” value in [3] and in test [8] was 5 (5=80-100%) in each case. Moreover, the “percentage damage caused to the plant, SETFA” value in test [4] and in test [9] was 5 (5=80-100%) throughout. In addition, the “percentage damage caused to the plant, IPOHE” value in test [5] and in test [10] was 4 (4=60-79%) in each case.

As to `CCSc1c(OCC(F)(F)F)ccc(C(=O)Nc2nnnn2C)c1Cl` [Compound 1.037], the “percentage damage caused to the plant, ABUTH” value in test [1] is reported as 5 (5=80-100%); in test [6], 3 (3=40-59%). In addition, the entries for the “percentage damage caused to the plant, ECHCG” value in [2] and in [7] were 5 (5=80-100%) and 4 (4=60-79%), respectively. Besides, the “percentage damage caused to the plant, AMARE” value in [3] and in test [8] was 5 (5=80-100%) each time. In addition, the “percentage damage caused to the plant, SETFA” value in test [4] was 5 (5=80-100%); in [9], 3 (3=40-59%). Moreover, the “percentage damage caused to the plant, IPOHE” value in test [5] is 3 (3=40-59%); in [10], 1 (1=0-19%).

For the origin of these results see patent US20220402882A1, “HERBICIDAL COMPOUNDS” (SYNGENTA CROP PROTECTION AG, priority 2019, published 2022).
